Laboratory results published in patent publication US6221914A, “Sulfonamide bridging compounds that inhibit tryptase activity” (Array Biopharma Inc., priority 1998, dated 2001).

Assays:
Format in all cases: biochemical
[1] = molecular target: T1, Human Neutrophil Cathepsin G (Homo sapiens, UniProt P08311); experiment: Ki determination, human neutrophil cathepsin G (N-Suc-Ala-Ala-Pro-Phe-pNA); conditions: 625 mM Tris-HCl, pH 7.5, 2.5 mM MgCl2, 0.125% Brij 35; read-out: Experimentally Determined Ki, Cathepsin G
T1 construct: from tissue; host or cells: human neutrophils
T1 sequence (P08311 21-255): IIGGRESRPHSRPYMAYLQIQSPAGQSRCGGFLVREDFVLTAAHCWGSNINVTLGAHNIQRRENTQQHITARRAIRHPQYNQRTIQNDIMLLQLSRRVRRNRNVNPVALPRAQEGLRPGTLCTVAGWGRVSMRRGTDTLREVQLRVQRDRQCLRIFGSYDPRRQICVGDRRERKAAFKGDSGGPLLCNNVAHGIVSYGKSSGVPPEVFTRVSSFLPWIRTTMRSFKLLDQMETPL
Method: (§1) Protease inhibition was assayed according to published procedures with minor modifications using various proteases and specific chromogenic peptide p-nitroanilide substrates. Assays were performed in Costar ultra-low cluster 96-well microtiter plate (Costar Corning Corp., Cambridge Mass.). Each protease was incubated with various concentrations of the test compound for 15 min. at 37° C. or as otherwise indicated, in specific assay buffer, and the residual activity was then measured by addition of the substrate. p-Nitroaniline produced by the proteolysis was determined by measuring the change in absorbance at 405 nm on a SpectraMAX 340 plate reader (Molecular devices, Sunnyvale, Calif.).
(§2) 1. The inhibition constant, Ki is calculated from individual data points using the equation for a tight-binding inhibitor (See Beith, "Proteinase Inhibitors-Proceedings of 2nd Int. Res. Conference", Fritz, et al. eds, New York, p.4463-4469 (1974)):
(§3) vi /vo [((Ki '+[I]+[E]o)^2 -4 [I]o
(§4) [E]o)^1/2 (Ki '+[I]o -[E]o)]/2[E]o
(§5) where Ki ' is apparent inhibition constant; vi and vo are the inhibited and uninhibited rates, respectively; [I]o and [E]o are the total concentrations of inhibitor and enzyme, respectively.
(§6) [note: [E]o is determined by active site titration of enzyme]
(§7) The Ki values are obtained by correcting Ki ' values for the effect of substrate concentration according to: [formula]
(§8) 2. Other inhibition data (Ki >>[E]o), the Ki is calculated from using the equations for a competitive inhibitor: [formula]
Human Neutrophil Cathepsin G activity was determined by using N-Suc-Ala-Ala-Pro-Phe-pNA in 625 mM Tris-HCl, pH 7.5, 2.5 mM MgCl2, 0.125% Brij 35 (See Groutas et al., Arch. Biochem. Biophys. 294, 144-146 (1992)).
(§9) The inhibition constant (Ki) of the test compounds against each proteolytic enzyme was determined according to Zitnik et al., Biochem. Biophys. Res. Commun. 232, 687-697 (1997)).

Human plasma plasmin = molecular target: T2, Human plasma plasmin (Homo sapiens, UniProt P00747); experiment: Ki determination, human plasma plasmin (Tosyl-Gly-Pro-Lys-pNA); conditions: 100 mM Tris-HCl, pH 7.4, 100 mM NaCl, 0.05% Triton X-100; read-out: Experimentally Determined Ki, Plasmin
T2 construct: from tissue; host or cells: human plasma
T2 sequence (P00747 581-810 limits assumed): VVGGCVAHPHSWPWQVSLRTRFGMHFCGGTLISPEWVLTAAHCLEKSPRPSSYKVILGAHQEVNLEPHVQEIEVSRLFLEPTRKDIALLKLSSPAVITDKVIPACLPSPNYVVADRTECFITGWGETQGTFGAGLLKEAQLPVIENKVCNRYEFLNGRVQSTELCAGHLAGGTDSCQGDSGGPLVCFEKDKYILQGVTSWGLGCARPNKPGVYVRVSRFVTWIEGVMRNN
T2 sequence (P00747 97-580 partner limits assumed): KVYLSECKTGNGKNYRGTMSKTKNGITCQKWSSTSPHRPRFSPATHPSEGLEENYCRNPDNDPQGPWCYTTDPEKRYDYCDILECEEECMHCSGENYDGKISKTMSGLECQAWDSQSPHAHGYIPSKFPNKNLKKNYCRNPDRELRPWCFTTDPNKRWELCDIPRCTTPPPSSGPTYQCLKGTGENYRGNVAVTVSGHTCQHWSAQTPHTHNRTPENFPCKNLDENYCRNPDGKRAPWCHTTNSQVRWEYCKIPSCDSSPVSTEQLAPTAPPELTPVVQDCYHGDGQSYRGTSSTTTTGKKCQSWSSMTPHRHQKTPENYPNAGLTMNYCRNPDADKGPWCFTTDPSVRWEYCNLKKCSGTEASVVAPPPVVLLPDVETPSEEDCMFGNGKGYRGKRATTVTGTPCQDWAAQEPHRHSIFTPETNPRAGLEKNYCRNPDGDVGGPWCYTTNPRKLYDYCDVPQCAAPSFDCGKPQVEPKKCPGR
Method: as §1, §2, §3, §4, §5, §6, §7, §8
Human plasma plasmin activity was determined by using Tosyl-Gly-Pro-Lys-pNAin 100 mM Tris-HCl, pH 7.4, 100 mM NaCl, 0.05% Triton X-100 (See Lottenberg, et al., Meth. Enzymol. 80, 341-361 (1981)).
as §9

[2] = molecular target: T3, Bovine pancreatic Trypsin (Bos taurus, UniProt P00760); experiment: Ki determination, bovine pancreatic trypsin (N-a-Benzoyl-L-Arg-pNA); conditions: 50 mM Tris-HCl, pH 8.2, 20 mM CaCl2; read-out: Experimentally Determined Ki, Trypsin
T3 construct: from tissue; host or cells: bovine pancreas
T3 sequence (P00760 24-246): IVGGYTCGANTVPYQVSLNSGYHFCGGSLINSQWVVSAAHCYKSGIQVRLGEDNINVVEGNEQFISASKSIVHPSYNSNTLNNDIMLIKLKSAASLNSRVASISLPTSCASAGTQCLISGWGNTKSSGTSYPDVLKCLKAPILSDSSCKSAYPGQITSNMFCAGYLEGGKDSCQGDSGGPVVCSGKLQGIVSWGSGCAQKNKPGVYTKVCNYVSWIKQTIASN
Method: as §1, §2, §3, §4, §5, §6, §7, §8
Bovine pancreatic Trypsin (TPCK-treated) activity was determined by using N-a-Benzoyl-L-Arg-pNA in 50 mM Tris-HCl, pH 8.2, 20 mM CaCl2 (See Somorin, et al., J. Biochem. 85, 157-162 (1979)).
as §9

[3] = molecular target: T4, Bovine Pancreatic Chymotrypsin (Bos taurus, UniProt P00766); experiment: Ki determination, bovine pancreatic chymotrypsin (N-Suc-Ala-Ala-Pro-Phe-pNA); conditions: 100 mM Tris-HCl, pH 7.8, 10 mM CaCl2; read-out: Experimentally Determined Ki, Chymotrypsin
T4 construct: from tissue; host or cells: bovine pancreas
Method: as §1, §2, §3, §4, §5, §6, §7, §8
Bovine Pancreatic Chymotrypsin activity was determined by using N-Suc-Ala-Ala-Pro-Phe-pNA in 100 mM Tris-HCl, pH 7.8, 10 mM CaCl2 (See Delmar, et al., J. Biochem. 85, 157-162 (1979)).
as §9

Human plasma factor Xa = molecular target: T5, Human plasma factor Xa (Homo sapiens, UniProt P00742); experiment: Ki determination, human plasma factor Xa (N-Benzoyl-Ile-Glu-Gly-Arg-pNA); conditions: 50 mM Tris-HCl, pH 7.8, 200 mM NaCl, 0.05% BSA; read-out: Experimentally Determined Ki, Factor Xa
T5 construct: from tissue; host or cells: human plasma
T5 sequence (P00742 235-488 limits assumed): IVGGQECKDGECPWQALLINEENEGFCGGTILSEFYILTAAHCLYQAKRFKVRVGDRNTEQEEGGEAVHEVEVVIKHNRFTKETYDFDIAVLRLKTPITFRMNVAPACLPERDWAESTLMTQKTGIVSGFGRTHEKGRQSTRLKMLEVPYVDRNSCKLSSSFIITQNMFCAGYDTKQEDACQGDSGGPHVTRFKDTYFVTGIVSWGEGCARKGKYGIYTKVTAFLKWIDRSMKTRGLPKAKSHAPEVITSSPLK
T5 sequence (P00742 41-179 partner limits assumed): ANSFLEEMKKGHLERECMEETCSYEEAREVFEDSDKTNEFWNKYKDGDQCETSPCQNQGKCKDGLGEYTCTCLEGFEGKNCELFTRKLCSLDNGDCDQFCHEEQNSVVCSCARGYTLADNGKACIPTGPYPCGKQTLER
Method: as §1, §2, §3, §4, §5, §6, §7, §8
Human plasma factor Xa activity was determined by using N-Benzoyl-Ile-Glu-Gly-Arg-pNA in 50 mM Tris-HCl, pH 7.8, 200 mM NaCl, 0.05% BSA (See Lottenberg, et al. Meth. Enzymol. 80, 341-361 (1981)).
as §9

[4] = molecular target: T6, Human Neutrophil elastase (Homo sapiens, UniProt P08246); experiment: Ki determination, human neutrophil elastase (pyroGlu-Pro-Val-pNA); conditions: 100 mM Tris-HCl, pH 8.3, 0.96 M NaCl, 1% BSA; read-out: Experimentally Determined Ki, Elastase
T6 construct: from tissue; host or cells: human neutrophils
T6 sequence (P08246 30-267): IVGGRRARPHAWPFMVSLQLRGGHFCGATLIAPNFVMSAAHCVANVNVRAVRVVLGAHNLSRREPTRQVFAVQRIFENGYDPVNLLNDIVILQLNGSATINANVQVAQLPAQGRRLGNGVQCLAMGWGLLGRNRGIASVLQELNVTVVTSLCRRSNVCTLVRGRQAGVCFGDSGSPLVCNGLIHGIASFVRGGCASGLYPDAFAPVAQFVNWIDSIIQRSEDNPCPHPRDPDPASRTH
Method: as §1, §2, §3, §4, §5, §6, §7, §8
Human Neutrophil elastase activity was determined by using pyroGlu-Pro-Val-pNA in 100 mM Tris-HCl, pH 8.3, 0.96 M NaCl, 1% BSA (See Kramps, et al. Scand. J. Clin. Lab. Invest. 43, 427-432 (1983)).
as §9

Structure (SMILES) | Ki [1] | Ki (Human plasma plasmin) | Ki [2] | Ki [3] | Ki (Human plasma factor Xa) | Ki [4]
N=C(N)c1cccc(S(=O)(=O)NCc2ccc(OCCCCCOc3ccc(CNS(=O)(=O)c4cccc(C(=N)N)c4)cc3)cc2)c1 [Example 41, 1,5-Bis-{4-[(3-carbamimidoyl-benzenesulfonylamino)-methyl]-phenoxy}-pentane] | > 100 µM | 0.93 µM | 2.5 µM | > 100 µM | 6.4 µM | > 100 µM
N=C(N)c1cccc(S(=O)(=O)NCc2ccc(OCCCCOc3ccc(CNS(=O)(=O)c4cccc(C(=N)N)c4)cc3)cc2)c1 [Example 47, 1,4-Bis-{4-[(3-carbamimidoyl-benzenesulfonylamino)-methyl]-phenoxy}-butane] | > 100 µM | 0.06 µM | 1.8 µM | > 100 µM | 2.9 µM | > 100 µM
N=C(N)c1ccc(S(=O)(=O)NCc2ccc(OCCCOc3ccc(CNS(=O)(=O)c4ccc(C(=N)N)cc4)cc3)cc2)cc1 [Example 50, 1,3-Bis-{4-[(4-carbamimidoyl-benzenesulfonylamino)-methyl]-phenoxy}-propane] | > 100 µM | 6.1 µM |  | 6.3 µM | > 100 µM | > 100 µM
N=C(N)c1cccc(S(=O)(=O)NCc2ccc(OCCOc3ccc(CNS(=O)(=O)c4cccc(C(=N)N)c4)cc3)cc2)c1 [Example 51, 1,2-Bis-{4-[(3-carbamimidoyl-benzenesulfonylamino)-methyl]-phenoxy}-ethane] | > 100 µM | 2 µM | 5.2 µM | > 100 µM | 6.1 µM | > 100 µM
N=C(N)c1cccc(S(=O)(=O)NCc2ccc(COCc3ccc(CNS(=O)(=O)c4cccc(C(=N)N)c4)cc3)cc2)c1 [Example 53, 1,3-Bis-{4-[(3-carbamimidoyl-benzenesulfonylamino)-methyl]-phenyl}-2-oxapropane] | > 100 µM | 10 µM | 3 µM | > 100 µM | 16 µM | > 100 µM
N=C(N)c1ccc(C(=O)NCc2ccc(OCCCCCOc3ccc(CNC(=O)c4ccc(C(=N)N)cc4)cc3)cc2)cc1 [Example 54, 1,5-Bis-{4-[(4-carbamimidoyl-benzenecarbonylamino)-methyl]-phenoxy}-pentane] | > 100 µM | 4.1 µM | 0.91 µM | > 100 µM | > 100 µM | > 100 µM
N=C(N)c1cccc(C(=O)NCc2ccc(OCCCCCOc3ccc(CNC(=O)c4cccc(C(=N)N)c4)cc3)cc2)c1 [Example 55, 1,5-Bis-{4-[(3-carbamimidoyl-benzenecarbonylamino)-methyl]-phenoxy}-pentane] | > 100 µM | 7.6 µM | 0.9 µM | > 100 µM | 1.8 µM | > 100 µM
N=C(N)c1ccc(C(=O)NCc2ccc(OCCCCCCOc3ccc(CNC(=O)c4ccc(C(=N)N)cc4)cc3)cc2)cc1 [Example 56, 1,6-Bis-{4-[(4-carbamimidoyl-benzenecarbonylamino)-methyl]-phenoxy}-hexane] | > 100 µM | 1.6 µM | 1.3 µM | > 100 µM |  | > 100 µM
N=C(N)c1ccc(C(=O)NCc2ccc(COCc3ccc(CNC(=O)c4ccc(C(=N)N)cc4)cc3)cc2)cc1 [Example 66, 1,3-Bis-{4-[(4-carbamimidoyl-benzenecarbonylamino)-methyl]-phenyl}-2-oxapropane] |  | 10.1 µM | 0.51 µM | > 100 µM | 25.7 µM | > 100 µM

Results, then the compound that gave them:

Ki [1] | Ki (Human plasma plasmin) | Ki [2] | Ki [3] | Ki (Human plasma factor Xa) | Ki [4] | Structure (SMILES)
> 100 µM | 2.6 µM | 3.6 µM | 20 µM | 15.6 µM | > 100 µM | N=C(N)c1cccc(S(=O)(=O)NCc2ccc(OCCCCCCOc3ccc(CNS(=O)(=O)c4cccc(C(=N)N)c4)cc3)cc2)c1 [Example 43, 1,6-Bis-{4-[(3-carbamimidoyl-benzenesulfonylamino)-methyl]-phenoxy}-hexane]
> 100 µM | 10 µM | 12 µM | > 100 µM | 7.6 µM | > 100 µM | N=C(N)c1cccc(S(=O)(=O)NCc2ccc(OCCCCCCCOc3ccc(CNS(=O)(=O)c4cccc(C(=N)N)c4)cc3)cc2)c1 [Example 45, 1,7-Bis-{4-[(3-carbamimidoyl-benzenesulfonylamino)-methyl]-phenoxy}-heptane]
> 100 µM | 0.74 µM | 2.8 µM | > 100 µM | 7.4 µM | > 100 µM | N=C(N)c1cccc(S(=O)(=O)NCc2ccc(OCCCOc3ccc(CNS(=O)(=O)c4cccc(C(=N)N)c4)cc3)cc2)c1 [Example 49, 3,1-Bis-{4-[(3-carbamimidoyl-benzenesulfonylamino)-methyl]-phenoxy}-propane]
> 100 µM | 10.7 µM | 1.7 µM | > 100 µM |  | > 100 µM | N=C(N)c1cccc(C(=O)NCc2ccc(OCCCCCCOc3ccc(CNC(=O)c4cccc(C(=N)N)c4)cc3)cc2)c1 [Example 57, 1,6-Bis-{4-[(3-carbamimidoyl-benzenecarbonylamino)-methyl]-phenoxy}-hexane]
> 100 µM | 3.8 µM | 1.5 µM | > 100 µM | 20 µM | > 100 µM | N=C(N)c1ccc(C(=O)NCc2ccc(OCCCCCCCOc3ccc(CNC(=O)c4ccc(C(=N)N)cc4)cc3)cc2)cc1 [Example 58, 1,7-Bis-{4-[(4-carbamimidoyl-benzenecarbonylamino)-methyl]-phenoxy}-heptane]
> 100 µM | 28 µM | 2.4 µM | > 100 µM |  | > 100 µM | N=C(N)c1cccc(C(=O)NCc2ccc(OCCCOc3ccc(CNC(=O)c4cccc(C(=N)N)c4)cc3)cc2)c1 [Example 63, 1,3-Bis-{4-[(3-carbamimidoyl-benzoylamino)-methyl]-phenoxy}-propane]
